# From patent publication US12616711B2, “Therapeutic dendrimer” (Starpharma Pty Ltd, priority 2019, dated 2026)
# Legend:
# CAPAN-1 cells = assay: alamarBlue viability assay, GI50; type: cell-based, human; conditions: 144 h, given in μM Gemcitabine
# Experimental: (§1) A study was carried out to determine the ability of example dendrimers to inhibit growth of cancer cell lines using an alamarBlue viability assay (Thermo Fisher, DAL1025).
# (§2) The cytotoxicity of compounds toward MDA-MB-231, A549, H460, BxPC3 and CAPAN-1 cells were evaluated for viability. Cells were seeded at a density of 1.2-5×10^3 cells, dependent on cell growth rate, in 96 well plates and incubated overnight. Cells were then treated with serial dilutions of test compositions for 72 h (MDA-MB-231, A549 and H460 lines) or 144 h (BxPC3 and CAPAN-1 lines). For cell viability analysis, 10% media volume of alamar Blue was added during the final 6-8 h of incubation. Reduction of alamarBlue in living cells yields a red fluorescent metabolite that can be read on a plate reader (560 nm excitation/610 nm emission.). Cell viability and subsequent GI50 values were was determined from the blank corrected dose-response curves, with 4-parameter nonlinear curve fit, in GraphPad Prism.
# A549 cells = assay: alamarBlue viability assay, GI50; type: cell-based, human; conditions: 72 h, given in μM Gemcitabine
# Experimental: as §1, §2
# MDA-MB-231 cells = assay: alamarBlue viability assay, GI50; type: cell-based; conditions: 72 h, given in μM Gemcitabine
# Experimental: as §1, §2
# H460 cells = assay: alamarBlue viability assay, GI50; type: cell-based; conditions: given in μM Gemcitabine
# Experimental: as §1, §2
# BxPC3 cells = assay: alamarBlue viability assay, GI50; type: cell-based; conditions: BxPC-3, 144 h, given in μM Gemcitabine
# Experimental: as §1, §2
# [1] = tested on: CAPAN-1 tumour xenografts; assay: CAPAN-1 mouse xenograft, alone or with Abraxane or DEP-DTX (Examples 13a, 13b); type: in vivo; conditions: day 29; i.v.; Gemcitabine 120, Abraxane 40, 3 at 6.5, 6 at 5 (day 1) then 4, DEP-DTX 24 (10 in combination) mg/kg
# Experimental: Mice were inoculated and tumours sized as described above. On day nineteen after implantation, mice with similar sized tumours (mean tumour volume 100 mm^3) were randomised into 7 groups of 10 animals. […] Abraxane® was dissolved in saline solution immediately prior to dosing.
# Abraxane®, gemcitabine and dendrimers were administered at days 1, 10, and 17 via tail vein i.v. injection, at 0.1 ml/10 g body weight.
# In an extension of Example 13a, two additional groups of mice were prepared and dosed to assess the anti-tumour efficacy properties of a taxane-dendrimer combined with a nucleoside analogue-dendrimer (e.g. 6). Mice were inoculated and tumours sized as described above.
# Dendrimers were administered weekly via tail vein i.v. injection, at 0.1 ml/10 g body weight for 3 weeks.
# All statistical analyses were performed using GraphPad Prism 8.1.
# [2] = tested on: CAPAN-1 tumour xenografts; assay: CAPAN-1 mouse xenograft pancreatic cancer model, efficacy vs gemcitabine (Example 11); type: in vivo; conditions: for Tumour Growth inhibition (%) v vehicle: day 29, Gemcitabine 120, 1 at 2, 4 at 5, 2 at 5, 5 at 3 mg/kg; for Tumour Growth inhibition (%) v vehicle / effect on CAPAN-1 tumours over the dosing study (FIG. 4): i.v. twice weekly for 3 weeks; for survival compared to Gemcitabine (Kaplan-Meier): P<0.0001 Mantel Cox, Gemcitabine 120 mg/kg; for effect on CAPAN-1 tumours over the dosing study (FIG. 4): 4 at 5, 2 at 5, 5 at 3 mg/kg
# Experimental: A CAPAN-1 (human pancreatic adenocarcinoma cell line) mouse xenograft pancreatic cancer model study was carried out to assess the anti-tumour efficacy properties of example dendrimers compared to gemcitabine.
# Compounds 1, 4, 2 and 5 were prepared by dissolving in sterile saline solution immediately prior to dosing and. Gemcitabine ((DBL™ Gemcitabine injection, Hospira Pty Ltd.) was further diluted in saline solution prior to dosing.
# Female NOD-SCID Interleukin-2 receptor gamma chain null mice (aged 9 weeks) were inoculated subcutaneously on the flank with 5×10^6 CAPAN-1 cells in PBS:Matrigel (1:1). Mice were weighed and tumours measured twice weekly using electronic callipers. Tumour volume (mm^3) was calculated as length (mm)/2×width (mm)^2. On day seventeen after implantation, mice with similar sized tumours (mean tumour volume 100 mm^3) were randomised into 6 groups of 10 animals.
# Compounds were administered via tail vein i.v. injection, twice weekly at […] for 3 weeks. Groups were dosed as follows: • 1. Saline—vehicle • 2. Gemcitabine (120 mg/kg, i.v.) • 3. 1 (2 mg/kg, i.v.) • 4. 4 (5 mg/kg, i.v.) • 5. 2 (5 mg/kg, i.v.) • 6. 5 (3 mg/kg, i.v.)
# Tumour growth inhibition was analysed at day 29 (where all vehicle animals remained in the study) using one-way ANOVA followed by Dunnett's multiple comparison test. Tumour growth curves of gemcitabine and DEP-gemcitabine were compared over 47 days (when all treatment group animals remained in the study for tumour-related endpoints) using a mixed-effects model followed by Tukey's multiple comparison test. […] All statistical analysis was performed using GraphPad Prism 8.1.
# [3] = tested on: CAPAN-1 tumour xenografts; assay: CAPAN-1 mouse xenograft, dosing regimen study (Example 12); type: in vivo; conditions: 5 mg/kg i.v. weekly for 3 weeks compared to 2 mg/kg i.v. biweekly for 3 weeks
# Experimental: A CAPAN-1 (human pancreatic adenocarcinoma cell line) mouse xenograft pancreatic cancer model was established to assess the effects of weekly compared to biweekly administration of an example dendrimer.
# Compound 1 was prepared as described above. Mice were inoculated and tumours sized as described above. On day seventeen after implantation, mice with similar sized tumours (mean tumour volume 140 mm^3) were randomised into 2 groups of 5 animals: • 1. 1 (5 mg/kg, i.v.) weekly for 3 weeks; and • 2. 1 (2 mg/kg, i.v.) biweekly for 3 weeks.
# Plasma release study = type: in vitro ADME; conditions: 37° C.
# Experimental: The plasma was placed in a CO2 incubator at 3% CO2 at 42% relative humidity to reach a pH of 7.4.
# Gemcitabine HCl (28.5 mg) was dissolved in Milli Q water and the resulting stock solution transferred to a 5 mL volumetric flask and diluted to provide working standard solutions.
# The plasma release study was conducted by adding 1 mL of plasma (centrifuged and filtered) to 0.2 mL of dendrimer solution (approximately 2 mg/mL gemcitabine equivalent in miliQ water) for example dendrimers and a comparator. The mixtures were vortexed (30 sec) then incubated at 37° C. 5% CO2. At various timepoints aliquots (0.1 mL) were removed and added to ACN (0.2 mL). The resulting mixtures were vortexed (30 s), centrifuged (10 min, 4° C.), filtered and analysed by HPLC (C8 Xbridge, 3×100 mm, […], 0.4 mL/min., gradient: 5% ACN/H2O) (0-1 min), 5-80% ACN (1-7 min), 80% ACN (7-12 min), 80-5% ACN (12-13 min), 5% ACN (13-15 min), 100 mM ammonium formate buffer, column temperature 50° C., sample tray 4° C., 260 nm.
Compound,Tumour Growth inhibition (%) v vehicle at day 29 [1] [%],Tumour Growth inhibition (%) v vehicle [2] [%],GI50 (CAPAN-1 cells) [µM],GI50 (A549 cells) [µM],GI50 (H460 cells; 72 h) [µM],GI50 (BxPC3 cells) [µM],GI50 (MDA-MB-231 cells) [µM],survival compared to Gemcitabine (Kaplan-Meier) [2],effect on CAPAN-1 tumours over the dosing study (FIG. 4) [2],other results
"Nc1ccn([C@@H]2O[C@H](CO)[C@@H](O)C2(F)F)c(=O)n1 [Gemcitabine, gemcitabine, reference compound]",59,84,–,–,–,–,–,–,–,"GI50 (CAPAN-1 cells; Homo sapiens): 0.009 µM; GI50 (A549 cells; Homo sapiens): 0.011 µM; GI50 (MDA-MB-231 cells; Homo sapiens): 0.004 µM; GI50 (H460 cells; Homo sapiens, NCI-H460, 72 h): 0.042 µM; GI50 (BxPC3 cells; Homo sapiens): 0.009 µM"
"BHALys[Lys]32[α-TDA-DTX]32[ε-PolyPEG2000]32 [DEP-DTX, reference compound]",108,–,–,–,–,–,–,–,–,–
"[BHA Lys][Lys]30[Lys]32 [Compound 1, [BHA Lys][Lys]30[Lys]32 [(α-NH-TDA-Gemcitabine)32 (ε-NHPEG˜1100)32]]",–,75,0.033,0.051,0.215,0.007,–,–,–,"suppression of tumour growth, weekly vs biweekly regimen (FIG. 5) [3]: more effective at suppressing tumour growth than 1, given biweekly at 2 mg/kg"
"[BHA Lys][Lys]30[Lys]32 [Compound 2, [BHA Lys][Lys]30[Lys]32 [(α-NH-TDA-Gemcitabine)32 (ε-NHPEG570)32]]",–,94,0.021,0.034,0.412,–,0.004,significantly extended survival beyond that of Gemcitabine,complete stasis,–
"[BHA Lys][Lys]30[Lys]32 [Compound 4, [BHA Lys][Lys]30[Lys]32 [(α-NH-DGA-Gemcitabine)32 (ε-NHPEG˜570)32]]",–,91,0.011,0.031,0.061,0.013,0.003,significantly extended survival beyond that of Gemcitabine,complete stasis,–
"[BHA Lys][Lys]30[Lys]32 [Compound 5, [BHA Lys][Lys]30[Lys]32 [(α-NH-DGA-Gemcitabine)32 (ε-NHPEG˜1100)32]]",–,94,0.003,0.044,0.046,–,0.003,significantly extended survival beyond that of Gemcitabine,complete stasis,–
"[BHA Lys][Lys]30[Lys]32 [Compound 6, [BHA Lys][Lys]30[Lys]32 [(α-NH-DGA-Gemcitabine)32 (ε-NHPEG˜2100)32]]",83,–,0.006,0.045,0.056,0.001,0.005,–,–,Human Plasma % release (Plasma release study; 0 h): 0.49%; Human Plasma % release (Plasma release study; 2 h): 9.94%; Human Plasma % release (Plasma release study; 4 h): 18.18%; Human Plasma % release (Plasma release study; 6 h): 39.84%; Human Plasma % release (Plasma release study; 24 h): 71.13%; Human Plasma % release (Plasma release study; 30 h): 77.98%
"[BHA Lys][Lys]30[Lys]32 [Compound 8, [BHA Lys][Lys]30[Lys]32 [(α-NH-Glu-Gemcitabine)32 (ε-NHPEG˜2100)32]]",–,–,–,0.5,–,–,0.103,–,–,Human Plasma % release (Plasma release study; 0 h): −0.17%; Human Plasma % release (Plasma release study; 2 h): 0.22%; Human Plasma % release (Plasma release study; 4 h): −1.99%; Human Plasma % release (Plasma release study; 6 h): 3.02%; Human Plasma % release (Plasma release study; 24 h): 6.19%; Human Plasma % release (Plasma release study; 30 h): 5.39%
